In US7803930B2, “Antisense modulation of apolipoprotein B-expression” (Isis Pharmaceuticals, Inc., priority 2002, dated 2010):
In the oligonucleotide strings, read from the 5' end, every base follows the letter of its sugar. An asterisk marks phosphorothioate; unmarked linkages are phosphodiester. Other units and linkages are bracketed, terminal groups are in braces. A string of capitals states the bases alone. e = 2'-O-(2-methoxyethyl) (MOE); [5mC] = 5-methylcytosine; d = 2'-deoxy (DNA)

Tested on: human apolipoprotein B mRNA
Assay: Inhibition of human apolipoprotein B mRNA levels in HepG2 cells, quantitative real-time PCR
Type: cell-based
Settings: averages from two experiments; for % INHIB / % INHIB 50 nm / % INHIB 150 nm: HepG2 cells; for % INHIB 50 nm / % INHIB 150 nm: Table 11 gene walk
In short: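 HepG2 cells at 80% confluency were transfected with antisense oligonucleotide using 3.75 μg/mL Lipofectin in Opti-MEM for 4-7 h and harvested 16-24 h after treatment. Apolipoprotein B mRNA was measured by real-time RT-PCR and normalized to GAPDH or RiboGreen total RNA. Percent inhibition came from untreated-control standard curves.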

[1] = human apolipoprotein B mRNA, oligonucleotides targeting genomic sequence SEQ ID NO 334

## 301210 (antisense e[5mC]*eT*eA*eT*eG*dG*d[5mC]*dT*dG*dA*dG*d[5mC]*dT*dT*dG*e[5mC]*e[5mC]*eT*eA*eT) [compound 301210]
[1]
  % INHIB: 33%

## 301211 (antisense e[5mC]*eT*e[5mC]*eT*e[5mC]*dT*dG*dA*dA*dA*dA*dA*dT*dA*dT*eA*e[5mC]*e[5mC]*e[5mC]*eT) [compound 301211]
[1]
  % INHIB: 17%

## 301212 (antisense eT*eT*eG*eA*eT*dG*dT*dA*dT*d[5mC]*dT*d[5mC]*dA*dT*d[5mC]*eT*eA*eG*e[5mC]*eA) [compound 301212]
[1]
  % INHIB: 41%

## 301213 (antisense eT*eA*eG*eA*eA*d[5mC]*d[5mC]*dA*dT*dG*dT*dT*dT*dG*dG*eT*e[5mC]*eT*eT*e[5mC]) [compound 301213]
[1]
  % INHIB: 35%

## 301214 (antisense eT*eT*eT*e[5mC]*eT*d[5mC]*dT*dT*dT*dA*dT*d[5mC]*dA*d[5mC]*dA*eT*eG*e[5mC]*e[5mC]*e[5mC]) [compound 301214]
[1]
  % INHIB: 29%

## 301215 (antisense eT*eA*eT*eA*eG*dT*dA*d[5mC]*dA*d[5mC]*dT*dA*dA*dA*dA*e[5mC]*eT*eT*e[5mC]*eA) [compound 301215]
[1]
  % INHIB: 1%

## 301216 (antisense e[5mC]*eT*eG*eG*eA*dG*dA*dG*dG*dA*d[5mC]*dT*dA*dA*dA*e[5mC]*eA*eG*eA*eG) [compound 301216]
[1]
  % INHIB: 49%

## 301217 (antisense eA*eG*eA*e[5mC]*eT*d[5mC]*d[5mC]*dA*dT*dT*dT*dA*dT*dT*dT*eG*eT*eT*e[5mC]*e[5mC]) [compound 301217]
HepG2 cells treated with 150 nM of compound, quantitative real-time PCR
  % INHIB (inhibition of human apolipoprotein B mRNA levels): 81%

## 301218 (antisense eA*e[5mC]*eA*eT*eT*dT*dT*dA*dT*d[5mC]*dA*dA*dT*dG*d[5mC]*e[5mC]*e[5mC]*eT*e[5mC]*eG) [compound 301218]
Table 15, 150 nM
  % INHIB: 23%

## 301219 (antisense eG*e[5mC]*e[5mC]*eA*eG*dA*dA*d[5mC]*dA*dT*dT*dT*dT*dA*dT*e[5mC]*eA*eA*eT*eG) [compound 301219]
Table 15, 150 nM
  % INHIB: 35%

## 301220 (antisense eA*eG*eA*eG*eG*dT*dT*dT*dT*dG*d[5mC]*dT*dG*dT*dG*e[5mC]*e[5mC]*eA*eG*eA) [compound 301220]
Table 15, 150 nM
  % INHIB: 51%

## 301221 (antisense e[5mC]*eT*eA*eG*eA*dG*dG*dT*dT*dT*dT*dG*d[5mC]*dT*dG*eT*eG*e[5mC]*e[5mC]*eA) [compound 301221]
Table 15, 150 nM
  % INHIB: 61%

## 301222 (antisense eT*e[5mC]*eT*eA*eG*dA*dG*dG*dT*dT*dT*dT*dG*d[5mC]*dT*eG*eT*eG*e[5mC]*e[5mC]) [compound 301222]
Table 15, 150 nM
  % INHIB: 14%

## 301223 (antisense eA*eA*eT*e[5mC]*eA*d[5mC]*dA*d[5mC]*dT*dA*dT*dG*dT*dG*dT*eT*e[5mC]*eT*eA*eG) [compound 301223]
Table 15, 150 nM
  % INHIB: 26%

## 301224 (antisense eA*eA*eA*eT*e[5mC]*dA*d[5mC]*dA*d[5mC]*dT*dA*dT*dG*dT*dG*eT*eT*e[5mC]*eT*eA) [compound 301224]
Table 15, 150 nM
  % INHIB: 33%

## 301225 (antisense eT*eA*eA*eA*eT*d[5mC]*dA*d[5mC]*dA*d[5mC]*dT*dA*dT*dG*dT*eG*eT*eT*e[5mC]*eT) [compound 301225]
Table 15, 150 nM
  % INHIB: 3%

## 301226 (antisense e[5mC]*eT*eT*eA*eA*dA*dT*d[5mC]*dA*d[5mC]*dA*d[5mC]*dT*dA*dT*eG*eT*eG*eT*eT) [compound 301226]
Table 15, 150 nM
  % INHIB: 39%

## 301227 (antisense eT*eA*eT*eT*e[5mC]*dT*dG*dT*dT*dA*d[5mC]*dT*dT*dA*dA*eA*eT*e[5mC]*eA*e[5mC]) [compound 301227]
Table 15, 150 nM
  % INHIB: 23%

## 308589 (antisense e[5mC]*eT*eT*e[5mC]*eT*dG*d[5mC]*dT*dT*dG*dA*dG*dT*dT*dA*e[5mC]*eA*eA*eA*e[5mC]) [compound 308589]
  % INHIB 50 nm: 20%
150 nM
  % INHIB 150 nm: 94%

## 308590 (antisense eA*e[5mC]*e[5mC]*eT*eT*d[5mC]*dT*dG*d[5mC]*dT*dT*dG*dA*dG*dT*eT*eA*e[5mC]*eA*eA) [compound 308590]
  % INHIB 50 nm: 26%
150 nM
  % INHIB 150 nm: 98%

## 308591 (antisense eG*e[5mC]*eA*e[5mC]*e[5mC]*dT*dT*d[5mC]*dT*dG*d[5mC]*dT*dT*dG*dA*eG*eT*eT*eA*e[5mC]) [compound 308591]
  % INHIB 50 nm: 76%
150 nM
  % INHIB 150 nm: 92%

## 308592 (antisense eT*e[5mC]*eG*e[5mC]*eA*d[5mC]*d[5mC]*dT*dT*d[5mC]*dT*dG*d[5mC]*dT*dT*eG*eA*eG*eT*eT) [compound 308592]
  % INHIB 50 nm: 49%
150 nM
  % INHIB 150 nm: 96%

## 308593 (antisense e[5mC]*eT*eT*e[5mC]*eG*d[5mC]*dA*d[5mC]*d[5mC]*dT*dT*d[5mC]*dT*dG*d[5mC]*eT*eT*eG*eA*eG) [compound 308593]
  % INHIB 50 nm: 41%
150 nM
  % INHIB 150 nm: 80%

## 308594 (antisense eT*eG*e[5mC]*eT*eT*d[5mC]*dG*d[5mC]*dA*d[5mC]*d[5mC]*dT*dT*d[5mC]*dT*eG*e[5mC]*eT*eT*eG) [compound 308594]
  % INHIB 50 nm: 57%
150 nM
  % INHIB 150 nm: 88%

## 308595 (antisense eT*e[5mC]*eT*eG*e[5mC]*dT*dT*d[5mC]*dG*d[5mC]*dA*d[5mC]*d[5mC]*dT*dT*e[5mC]*eT*eG*e[5mC]*eT) [compound 308595]
  % INHIB 50 nm: 60%
150 nM
  % INHIB 150 nm: 82%

## 308596 (antisense eA*eG*eT*e[5mC]*eT*dG*d[5mC]*dT*dT*d[5mC]*dG*d[5mC]*dA*d[5mC]*d[5mC]*eT*eT*e[5mC]*eT*eG) [compound 308596]
  % INHIB 50 nm: 81%
150 nM
  % INHIB 150 nm: 94%

## 308597 (antisense eT*e[5mC]*eA*eG*eT*d[5mC]*dT*dG*d[5mC]*dT*dT*d[5mC]*dG*d[5mC]*dA*e[5mC]*e[5mC]*eT*eT*e[5mC]) [compound 308597]
  % INHIB 50 nm: 66%
150 nM
  % INHIB 150 nm: 91%

## 308598 (antisense e[5mC]*e[5mC]*eT*e[5mC]*eA*dG*dT*d[5mC]*dT*dG*d[5mC]*dT*dT*d[5mC]*dG*e[5mC]*eA*e[5mC]*e[5mC]*eT) [compound 308598]
  % INHIB 50 nm: 59%
150 nM
  % INHIB 150 nm: 85%

## 308599 (antisense eA*eG*e[5mC]*e[5mC]*eT*d[5mC]*dA*dG*dT*d[5mC]*dT*dG*d[5mC]*dT*dT*e[5mC]*eG*e[5mC]*eA*e[5mC]) [compound 308599]
  % INHIB 50 nm: 79%
150 nM
  % INHIB 150 nm: 94%

## 308600 (antisense eG*eT*eA*eG*e[5mC]*d[5mC]*dT*d[5mC]*dA*dG*dT*d[5mC]*dT*dG*d[5mC]*eT*eT*e[5mC]*eG*e[5mC]) [compound 308600]
  % INHIB 50 nm: 72%
150 nM
  % INHIB 150 nm: 89%

## 308601 (antisense eT*eG*eG*eT*eA*dG*d[5mC]*d[5mC]*dT*d[5mC]*dA*dG*dT*d[5mC]*dT*eG*e[5mC]*eT*eT*e[5mC]) [compound 308601]
  % INHIB 50 nm: 63%
150 nM
  % INHIB 150 nm: 91%
